Measured values from ChEMBL document CHEMBL4665914, “Identification of BRaf-Sparing Amino-Thienopyrimidines with Potent IRE1α Inhibitory Activity” (ACS Med Chem Lett, 2020).

How the values were obtained:
[1] = target: T1, Serine/threonine-protein kinase/endoribonuclease IRE1 (Homo sapiens, UniProt O75460); assay: Competitive inhibition of IRE1alpha LKR domain (Q470 to L997 residues) (unknown origin) expressed in Sf9 insect cells using mini-XBP-1 stem-loop RNA as substrate and measured every 2 mins for 50 mins by FRET assay
T1 sequence (O75460 whole entry, the tested form may be a part): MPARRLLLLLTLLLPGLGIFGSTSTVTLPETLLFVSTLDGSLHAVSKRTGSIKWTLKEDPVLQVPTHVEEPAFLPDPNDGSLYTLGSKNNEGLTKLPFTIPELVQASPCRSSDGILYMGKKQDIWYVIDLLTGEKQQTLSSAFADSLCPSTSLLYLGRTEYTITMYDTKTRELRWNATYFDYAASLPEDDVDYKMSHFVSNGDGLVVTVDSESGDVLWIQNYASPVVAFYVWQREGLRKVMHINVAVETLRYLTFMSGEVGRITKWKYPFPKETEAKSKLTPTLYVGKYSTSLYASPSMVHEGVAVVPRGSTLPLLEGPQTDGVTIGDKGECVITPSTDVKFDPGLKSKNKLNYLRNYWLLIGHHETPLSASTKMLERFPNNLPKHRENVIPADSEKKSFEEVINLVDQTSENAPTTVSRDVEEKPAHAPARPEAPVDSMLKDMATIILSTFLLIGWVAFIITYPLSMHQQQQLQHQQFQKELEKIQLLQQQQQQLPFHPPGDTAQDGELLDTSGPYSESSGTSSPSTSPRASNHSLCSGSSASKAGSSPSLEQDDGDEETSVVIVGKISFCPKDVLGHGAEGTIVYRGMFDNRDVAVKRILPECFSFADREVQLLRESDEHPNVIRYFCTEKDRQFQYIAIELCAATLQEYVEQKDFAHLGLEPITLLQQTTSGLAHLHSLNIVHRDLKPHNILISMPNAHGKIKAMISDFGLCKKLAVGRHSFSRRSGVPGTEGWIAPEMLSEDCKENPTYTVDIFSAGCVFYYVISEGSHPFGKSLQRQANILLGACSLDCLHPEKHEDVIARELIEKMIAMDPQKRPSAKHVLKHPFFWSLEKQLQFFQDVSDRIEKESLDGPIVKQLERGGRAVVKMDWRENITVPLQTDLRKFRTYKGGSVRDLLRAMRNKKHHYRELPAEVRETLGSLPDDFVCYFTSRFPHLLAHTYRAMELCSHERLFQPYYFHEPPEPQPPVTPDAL

[2] = target: T1, Serine/threonine-protein kinase/endoribonuclease IRE1; assay: Inhibition of IRE1alpha (unknown origin) assessed as XBP-1 slicing luciferase activity incubated for 1 hr followed by stimulation with thapsigargin measured after 5 hrs by luciferase reporter gene assay
[3] = target: Serine/threonine-protein kinase B-raf (Homo sapiens, UniProt P15056, V600E)
Sequence of Serine/threonine-protein kinase B-raf (P15056 2-766 V600E limits assumed): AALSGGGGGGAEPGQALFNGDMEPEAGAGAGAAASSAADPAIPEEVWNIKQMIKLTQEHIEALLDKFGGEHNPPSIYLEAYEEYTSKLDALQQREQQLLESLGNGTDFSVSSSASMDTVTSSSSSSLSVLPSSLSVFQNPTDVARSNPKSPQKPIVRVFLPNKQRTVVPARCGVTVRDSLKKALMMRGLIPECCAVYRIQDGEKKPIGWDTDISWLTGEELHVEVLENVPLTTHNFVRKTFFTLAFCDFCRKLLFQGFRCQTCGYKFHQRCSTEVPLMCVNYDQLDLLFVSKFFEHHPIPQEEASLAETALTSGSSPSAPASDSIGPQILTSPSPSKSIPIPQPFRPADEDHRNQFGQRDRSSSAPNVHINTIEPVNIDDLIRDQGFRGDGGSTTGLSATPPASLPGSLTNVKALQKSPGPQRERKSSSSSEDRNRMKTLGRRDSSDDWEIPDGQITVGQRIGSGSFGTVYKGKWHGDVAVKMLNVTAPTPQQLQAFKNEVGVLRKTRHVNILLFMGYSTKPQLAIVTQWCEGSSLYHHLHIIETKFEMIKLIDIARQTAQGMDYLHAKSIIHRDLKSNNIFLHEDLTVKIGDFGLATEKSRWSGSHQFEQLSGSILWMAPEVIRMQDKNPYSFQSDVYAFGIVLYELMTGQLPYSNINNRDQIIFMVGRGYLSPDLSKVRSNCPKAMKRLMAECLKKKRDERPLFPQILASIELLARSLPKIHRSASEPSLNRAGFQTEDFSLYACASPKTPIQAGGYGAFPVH

[4] = target: T2, hERG (KCNH2) (Homo sapiens, UniProt Q12809); assay: Inhibition of human ERG at 1 uM relative to control
T2 sequence (Q12809 whole entry): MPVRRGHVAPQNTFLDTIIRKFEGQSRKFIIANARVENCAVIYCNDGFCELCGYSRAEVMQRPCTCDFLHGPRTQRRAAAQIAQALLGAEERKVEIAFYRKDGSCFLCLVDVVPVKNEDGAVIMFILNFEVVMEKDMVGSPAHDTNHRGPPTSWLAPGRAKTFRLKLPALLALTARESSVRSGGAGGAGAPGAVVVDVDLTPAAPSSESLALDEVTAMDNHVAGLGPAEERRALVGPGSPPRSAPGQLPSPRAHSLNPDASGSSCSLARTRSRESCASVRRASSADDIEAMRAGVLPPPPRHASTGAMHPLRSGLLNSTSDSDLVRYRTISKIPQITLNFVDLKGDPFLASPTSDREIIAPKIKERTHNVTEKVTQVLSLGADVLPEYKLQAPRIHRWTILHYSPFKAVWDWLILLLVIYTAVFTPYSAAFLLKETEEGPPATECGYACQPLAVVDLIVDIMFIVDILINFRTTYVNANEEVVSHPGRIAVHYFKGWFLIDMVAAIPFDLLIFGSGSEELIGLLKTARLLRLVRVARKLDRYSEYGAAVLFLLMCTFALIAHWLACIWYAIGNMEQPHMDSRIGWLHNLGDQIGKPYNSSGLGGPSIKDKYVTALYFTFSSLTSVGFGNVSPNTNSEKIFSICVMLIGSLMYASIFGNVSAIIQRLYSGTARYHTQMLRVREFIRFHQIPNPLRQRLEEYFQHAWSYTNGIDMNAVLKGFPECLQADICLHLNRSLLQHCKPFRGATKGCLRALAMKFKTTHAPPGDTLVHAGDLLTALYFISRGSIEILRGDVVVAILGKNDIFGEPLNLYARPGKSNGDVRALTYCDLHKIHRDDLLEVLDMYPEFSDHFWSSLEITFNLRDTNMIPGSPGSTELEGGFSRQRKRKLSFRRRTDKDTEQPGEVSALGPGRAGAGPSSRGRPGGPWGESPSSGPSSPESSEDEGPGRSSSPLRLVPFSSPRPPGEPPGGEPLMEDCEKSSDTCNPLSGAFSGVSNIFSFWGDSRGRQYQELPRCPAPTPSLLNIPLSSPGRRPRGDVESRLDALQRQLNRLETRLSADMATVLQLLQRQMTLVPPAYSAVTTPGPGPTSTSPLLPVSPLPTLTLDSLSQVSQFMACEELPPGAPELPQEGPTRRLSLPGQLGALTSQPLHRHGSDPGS

[5] = target: T2, hERG (KCNH2); assay: Inhibition of human ERG at 10 uM relative to control

| SMILES | IC50 [1] | IC50 [2] | Ki [3] | inhibition at 1 µM [4] | inhibition at 10 µM [5] |
| --- | --- | --- | --- | --- | --- |
| Cc1cc(C(=O)Nc2c(Cl)ccc(NS(=O)(=O)c3cc(F)ccc3F)c2F)c2ncnc(N)c2c1 | 31 nM | 1100 nM | ≤ 0.08 nM | – | – |
| Nc1ncnc2c(C(=O)Nc3c(Cl)ccc(NS(=O)(=O)N4CCCC4)c3F)cccc12 | 200 nM | 5580 nM | 2.3 nM | – | – |
| Cc1nn(C)cc1-c1cc(C(=O)Nc2c(Cl)ccc(NS(=O)(=O)c3ccccc3Cl)c2F)c2ncnc(N)c2c1 | 64 nM | 48 nM | 0.25 nM | – | – |
| Cc1nn(C)cc1-c1cc(C(=O)Nc2c(Cl)ccc(NS(=O)(=O)c3ccccc3F)c2F)c2ncnc(N)c2c1 | 40 nM | 44 nM | ≤ 0.08 nM | – | – |
| Cc1cc(C(=O)Nc2c(Cl)ccc(NS(=O)(=O)c3cc(F)ccc3F)c2F)c2ncnc(N[C@@H]3CCCNC3)c2c1 | 3500 nM | 19000 nM | 70 nM | – | – |
| Cc1cc(C(=O)Nc2c(Cl)ccc(NS(=O)(=O)c3cc(F)ccc3F)c2F)c2ncnc(NCCN)c2c1 | 920 nM | 31000 nM | 5.2 nM | – | – |
| Cc1cc(C(=O)Nc2c(Cl)ccc(NS(=O)(=O)c3cc(F)ccc3F)c2F)c2ncnc(N[C@H]3CC[C@H](N)CC3)c2c1 | 700 nM | 19000 nM | 340 nM | – | – |
| Nc1ncnc2c(C(=O)Nc3c(Cl)ccc(NS(=O)(=O)c4cc(F)ccc4F)c3F)cc(-c3cccnc3)cc12 | 47 nM | 4900 nM | ≤ 0.08 nM | – | – |
| N[C@H]1CC[C@H](Nc2ncnc3c(C(=O)Nc4c(Cl)ccc(NS(=O)(=O)c5cc(F)ccc5F)c4F)csc23)CC1 | 24 nM | 320 nM | 1.4 nM | – | – |
| Cc1cc(NS(=O)(=O)c2ccccc2Cl)c2ccccc2c1Oc1ncccc1-c1ccnc(N[C@H]2CC[C@H](N)CC2)n1 | 4.2 nM | 57 nM | – | – | – |
| N[C@H]1CC[C@H](Nc2ncnc3c(C(=O)Nc4c(Cl)ccc(NS(=O)(=O)Cc5ccccc5)c4F)csc23)CC1 | 30 nM | 390 nM | 55 nM | – | – |
| Cc1cc(C(=O)Nc2c(Cl)ccc(NS(=O)(=O)c3cc(F)ccc3F)c2F)c2ncnc(N[C@H]3CCCNC3)c2c1 | 670 nM | 9900 nM | – | – | – |
| Nc1ncnc2c(C(=O)Nc3c(Cl)ccc(NS(=O)(=O)c4cc(F)ccc4F)c3F)csc12 | 67 nM | 5300 nM | ≤ 0.08 nM | – | – |
| N[C@H]1CC[C@H](Nc2ncnc3c(C(=O)Nc4c(Cl)ccc(NS(=O)(=O)c5ccccc5Cl)c4F)csc23)CC1 | 22 nM | 120 nM | – | 1.1% | 6.4% |
